Converted amounts (≈) assume the structure as drawn. Like-named read-outs stand apart in the source and are kept apart here.
Key:
[1] = biological target: FmlH (Escherichia coli, UniProt Q1RBS0); format: binding, Escherichia coli (UPEC, CFT073)
[2] = Rat pharmacokinetics; format: in vivo; details: for renal clearance to the urine: after IV and PO administration
[3] = Kinetic aqueous solubility; format: physicochemical; details: aqueous solution, pH 7.4
[4] = IC50, ELISA, FmlH binding to desialylated bovine submaxillary mucin, average of four or more replicates

| Compound | IC50 [1, 4] [nM] | also measured |
| --- | --- | --- |
| CC(=O)NC1[C@H](Oc2cccc(C(F)(F)F)c2-c2cccc(NS(C)(=O)=O)c2)O[C@H](CO)[C@H](O)[C@@H]1O (stereo in doubt) [Compound 90, N-((2S,3S,4R,5R)-4,5-Dihydroxy-6-(hydroxymethyl)-2-((3’-(meth-ylsulfonamido)-6-(trifluoromethyl)-[1,1’-biphenyl]-2-yl)oxy)-tetrahydro-2H-pyran-3-yl)acetamide] | 34 | fold greater potency / improvement in activity relative to 1 ([1]; ELISA IC50 ratio): ~20 fold; renal clearance to the urine [2]: low renal clearance to the urine; clearance ([2]; plasma, iv, 3 mg/kg): 57 mL/min/kg |
| COc1cccc(-c2ccccc2O[C@@H]2O[C@H](CO)[C@H](O)[C@H](O)[C@H]2NC(C)=O)c1 [Compound 37, N-((2S,3R,4R,5R,6R)-4,5-Dihydroxy-6-(hydroxymethyl)-2-((3’-me-thoxy-[1,1’-biphenyl]-2-yl)oxy)tetrahydro-2H-pyran-3-yl)-acetamide] | 2000 | – |
| CC(=O)N[C@H]1[C@H](Oc2ccccc2-c2cccc([N+](=O)[O-])c2)O[C@H](CO)[C@H](O)[C@@H]1O [Compound 38, N-((2S,3R,4R,5R,6R)-4,5-Dihydroxy-6-(hydroxymethyl)-2-((3’-nitro-[1,1’-biphenyl]-2-yl)oxy)tetrahydro-2H-pyran-3-yl)acetamide] | 2700 | – |
| CC(=O)N[C@H]1[C@H](Oc2ccccc2-c2cccc(C#N)c2)O[C@H](CO)[C@H](O)[C@@H]1O [Compound 39, N-((2S,3R,4R,5R,6R)-2-((3’-Cyano-[1,1’-biphenyl]-2-yl)oxy)-4,5-dihydroxy-6-(hydroxymethyl)tetrahydro-2H-pyran-3-yl)acetamide] | 970 | – |
| CC(=O)N[C@H]1[C@H](Oc2ccccc2-c2cccc(C(F)(F)F)c2)O[C@H](CO)[C@H](O)[C@@H]1O [Compound 40, N-((2S,3R,4R/5R/6R)-4/5-Dihydroxy-6-(hydroxymethyl)-2-((3’-(tri-fluoromethyl)-[1,1’-biphenyl]-2-yl)oxy)tetrahydro-2H-pyran-3-yl) acetamide] | 1500 | – |
| CC(=O)N[C@H]1[C@H](Oc2ccccc2-c2cccc(S(C)(=O)=O)c2)O[C@H](CO)[C@H](O)[C@@H]1O [Compound 41, N-((2S,3R,4R,5R,6R)-4,5-Dihydroxy-6-(hydroxymethyl)-2-((3’- (methylsulfonyl)-[1,1’-biphenyl]-2-yl)oxy)tetrahydro-2H-pyran-3-yl)acetamide] | 700 | – |
| CC(=O)N[C@H]1[C@H](Oc2ccccc2-c2cccc(CO)c2)O[C@H](CO)[C@H](O)[C@@H]1O [Compound 42, N-((2S,3R,4R/5R/6R)-4/5-Dihydroxy-6-(hydroxymethyl)-2-((3’-(hy-droxymethyl)-[1,1’-biphenyl]-2-yl)oxy)tetrahydro-2H-pyran-3-yl)-acetamide] | 630 | – |
| CC(=O)Nc1cccc(-c2ccccc2O[C@@H]2O[C@H](CO)[C@H](O)[C@H](O)[C@H]2NC(C)=O)c1 [Compound 43, N-(2’-(((2S,3R,4R,5R,6R)-3-Acetamido-4,5-dihydroxy-6-(hydroxymethyl)tetrahydro-2H-pyran-2-yl)oxy)-[1,1’-biphenyl]-3-yl)acetamide] | 310 | – |
| COC(=O)Nc1cccc(-c2ccccc2O[C@@H]2O[C@H](CO)[C@H](O)[C@H](O)[C@H]2NC(C)=O)c1 [Compound 45, Methyl(2’-(((2S,3R/4R/5R,6R)-3-Acetamido-4/5-dihydroxy-6-(hydroxymethyl)tetrahydro-2H-pyran-2-yl)oxy)-[1,1’-biphenyl]-3 yl)carbamate] | 630 | – |
| CC(=O)N[C@H]1[C@H](Oc2ccccc2-c2cccc(C(=O)N(C)C)c2)O[C@H](CO)[C@H](O)[C@@H]1O [Compound 46, 2’-(((2S,3R,4R,5R,6R)-3-Acetamido-4,5-dihydroxy-6-(hydroxymethyl)tetrahydro-2H-pyran-2-yl)oxy)-N,N-dimethyl-[1,1’- biphenyl]-3-carboxamide] | 3100 | – |
| CNC(=O)c1cccc(-c2ccccc2O[C@@H]2O[C@H](CO)[C@H](O)[C@H](O)[C@H]2NC(C)=O)c1 [Compound 47, 2’-(((2S,3R,4R,5R,6R)-3-Acetamido-4,5-dihydroxy-6-(hydroxymethyl)tetrahydro-2H-pyran-2-yl)oxy)-N-methyl-[1,1’-bi-phenyl]-3-carboxamide] | 3400 | – |
| CC(=O)N[C@H]1[C@H](Oc2ccccc2-c2cccc(C(N)=O)c2)O[C@H](CO)[C@H](O)[C@@H]1O [Compound 48, 2’-(((2S,3R,4R,5R,6R)-3-Acetamido-4,5-dihydroxy-6 (hydroxymethyl)tetrahydro-2H-pyran-2-yl)oxy)-[1,1’-biphenyl]-3-carboxamide] | 1600 | – |
| CC(=O)N[C@H]1[C@H](Oc2ccccc2-c2cccc(NS(=O)(=O)C(F)(F)F)c2)O[C@H](CO)[C@H](O)[C@@H]1O [Compound 49, N-((2S,3R,4R,5R,6R)-4,5-Dihydroxy-6-(hydroxymethyl)-2-((3’-((trifluoromethyl)sulfonamido)-[1,1’-biphenyl]-2-yl)oxy)-tetrahydro-2H-pyran-3-yl)acetamide] | 1100 | – |
| CC(=O)N[C@H]1[C@H](Oc2ccccc2-c2cccc(NS(C)(=O)=O)c2)O[C@H](CO)[C@H](O)[C@@H]1O [Compound 50, N-((2S,3R,4R,5R,6R)-4,5-Dihydroxy-6-(hydroxymethyl)-2-((3’- (methylsulfonamido)-[1,1’-biphenyl]-2-yl)oxy)tetrahydro-2H-pyran-3-yl)acetamide] | 230 | fold greater potency / improvement in activity relative to 1 ([1]; ELISA IC50 ratio): 3 fold; fold more potent than the matched pair Gal/GalNAc derivative ([1]; ELISA IC50 ratio, 50 vs 51, 30 vs 29): about 5 fold |
| CS(=O)(=O)Nc1cccc(-c2ccccc2O[C@@H]2O[C@H](CO)[C@H](O)[C@H](O)[C@H]2O)c1 [Compound 51, N-(2’-(((2S,3R,4S,5R,6R)-3,4,5-Trihydroxy-6-(hydroxymethyl)-tetrahydro-2H-pyran-2-yl)oxy)-[1,1’-biphenyl]-3-yl)-methanesulfonamide] | 1600 | – |
| CC(=O)N[C@H]1[C@H](Oc2cccc([N+](=O)[O-])c2-c2cccc(NS(C)(=O)=O)c2)O[C@H](CO)[C@H](O)[C@@H]1O [Compound 78, N-((2S,3R,4R,5R,6R)-4,5-Dihydroxy-6-(hydroxymethyl)-2-((3’- (methylsulfonamido)-6-nitro-[1,1’-biphenyl]-2-yl)oxy)tetrahydro-2H-pyran-3-yl)acetamide] | 58 | – |
| CC(=O)N[C@H]1[C@H](Oc2cccc(C#N)c2-c2cccc(NS(C)(=O)=O)c2)O[C@H](CO)[C@H](O)[C@@H]1O [Compound 79, N-((2S,3S,4R,5R)-2-((6-Cyano-3’-(methylsulfonamido)-[1,1’-bi-phenyl]-2-yl)oxy)-4,5-dihydroxy-6-(hydroxymethyl)tetra’hydro-2H-pyran-3-yl)acetamide] | 44 | – |
| CC(=O)N[C@H]1[C@H](Oc2cccc(F)c2-c2cccc(NS(C)(=O)=O)c2)O[C@H](CO)[C@H](O)[C@@H]1O [Compound 80, N-((2S,3R,4R,5R,6R)-2-((6-Fluoro-3’-(methylsulfonamido)-[1,1’- biphenyl]-2-yl)oxy)-4,5-dihydroxy-6-(hydroxymethyl)tetrahydro-2H-pyran-3-yl)acetamide] | 88 | solubility kinetic [3]: 197 µM (≈ 95.4 µg/mL) |
| CC(=O)N[C@H]1[C@H](Oc2cccc(C(=O)OCc3ccccc3)c2-c2cccc(NS(C)(=O)=O)c2)O[C@H](CO)[C@H](O)[C@@H]1O [Compound 81, Benzyl6-(((2S,3S,4R,5R)-3-Acetamido-4,5-dihydroxy-6-(hydroxymethyl)tetrahydro-2H-pyran-2-yl)oxy)-3’-(methylsulfona-mido)-[1,1’-biphenyl]-2-carboxylate] | 89 | – |
| CC(=O)N[C@H]1[C@H](Oc2cccc(C(=O)O)c2-c2cccc(NS(C)(=O)=O)c2)O[C@H](CO)[C@H](O)[C@@H]1O [Compound 82, 6-(((2S,3S,4R,5R)-3-Acetamido-4,5-dihydroxy-6 (hydroxymethyl)tetrahydro-2H-pyran-2-yl)oxy)-3 ‘-(methylsulfona-mido)-[1,1’-biphenyl]-2-carboxylic Acid] | 66 | – |
| COc1cccc(O[C@@H]2O[C@H](CO)[C@H](O)[C@H](O)[C@H]2NC(C)=O)c1-c1cccc(NS(C)(=O)=O)c1 [Compound 83, N-((2S,3S,4R,5R)-4,5-Dihydroxy-6-(hydroxymethyl)-2-((6-me-thoxy-3 ‘-(methylsulfonamido)-[1,1 ‘-biphenyl]-2-yl)oxy)tetrahydro-2H-pyran-3-yl)acetamide] | 92 | – |
| CC(=O)N[C@H]1[C@H](Oc2cccc(C)c2-c2cccc(NS(C)(=O)=O)c2)O[C@H](CO)[C@H](O)[C@@H]1O [Compound 84, N-((2S,3R/4R/5R,6R)-4/5-Dihydroxy-6-(hydroxymethyl)-2-((6-methyl-3’-(methylsulfonamido)-[1,1’-biphenyl]-2-yl)oxy)-tetrahydro-2H-pyran-3-yl)acetamide] | 62 | solubility kinetic [3]: 195 µM (≈ 93.7 µg/mL); IC50 ([1]; IC50 expressed as a concentration, converted from IC50 of 120 nM): 120 nM |
| CC(=O)N[C@H]1[C@H](Oc2ccc3ccccc3c2-c2cccc(NS(C)(=O)=O)c2)O[C@H](CO)[C@H](O)[C@@H]1O [Compound 85, N-((2S,3R,4R,5R,6R)-4,5-Dihydroxy-6-(hydroxymethyl)-2-((1-(3 (methylsulfonamido)phenyl)naphthalen-2-yl)oxy)tetrahydro-2H-pyran-3-yl)acetamide] | 81 | – |
| CC(=O)N[C@H]1[C@H](Oc2cccc(C)c2-c2cccc(NS(=O)(=O)C3CC3)c2)O[C@H](CO)[C@H](O)[C@@H]1O [Compound 86, N-((2S,3R,4R,5R,6R)-2-((3’-(Cyclopropanesulfonamido)-6-meth-yl-[1,1’-biphenyl]-2-yl)oxy)-4,5-dihydroxy-6-(hydroxymethyl)-tetrahydro-2H-pyran-3-yl)acetamide] | 51 | solubility kinetic [3]: 196 µM (≈ 99.3 µg/mL); renal clearance to the urine [2]: low renal clearance to the urine |
| Cc1cccc(O[C@@H]2O[C@H](CO)[C@H](O)[C@H](O)[C@H]2NS(C)(=O)=O)c1-c1cccc(NS(C)(=O)=O)c1 [Compound 89, N-((2S,3R,4R,5R,6R)-4,5-Dihydroxy-6-(hydroxymethyl)-2-((6-methyl-3’-(methylsulfonamido)-[1,1’-biphenyl]-2-yl)oxy)-tetrahydro-2H-pyran-3-yl)methanesulfonamide] | 3500 | – |

Reference: PMC6467771 (Journal of medicinal chemistry, 2019)
